Measurements taken from article PMC9381947 (Antiviral Research, 2022).

Key:
[1] = tested on: NSP13 E375A; format: biochemical, SARS-CoV-2
[2] = tested on: NSP13 E319A; format: biochemical, SARS-CoV-2

In the case of `O=C1O[C@@H]2[C@@H](OC(=O)c3cc(O)c(O)c(O)c3-c3c1cc(O)c(O)c3O)[C@H](O)O[C@@H]1COC(=O)c3cc(O)c(O)c(O)c3-c3c(O)c(O)c4oc(=O)c5c(c(O)c(O)c6oc(=O)c3c4c65)-c3c(cc(O)c(O)c3O)C(=O)O[C@@H]21` [Punicalagin, 2,3-hexahydroxydiphenoyl-gallagyl-D-glucose], the “reduction of the inhibitory potency compared to wild type” value [1] is reported as “about 2 fold” and the “reduction of the inhibitory potency compared to wild type” value [2] is reported as “about 2 fold”.
